# Laboratory results published in patent publication US12076401B2, “Benzamide and active compound compositions and methods of use” (TRANSLATIONAL DRUG DEVELOPMENT, LLC, priority 2015, dated 2024).
# “And” between values parts separate entries of the source, which are not always exact repeats. Identical values can stand only once. Like-named read-outs stand apart in the source and are kept apart here.
# Experiments:
# [1] = cited from earlier work
# U266 = test: CellTiter-Glo cell viability, U266 (Myeloma); assay type: cell-based
# Procedure: Compound ID #24 (a compound of formula (I)) and Compound ID #26 (a compound of formula (II)) were tested for the inhibition of cancer cell proliferation. Cell viability in the presence of varying concentrations of Compound ID #24 and Compound ID #26 at different time points was used to assess cytotoxicity and the effect of the compounds on cell proliferation. The data clearly show the surprising and unexpected increased anti-cancer activity associated with Compound ID #24 compared to Compound ID #26.
# Cell Viability Assay—Cell viability was measured by the CellTiter-Glo® cell viability assay Promega (Madison, Wis.). The CellTiter-Glo® Luminescent Cell Viability Assay is a homogeneous method to determine the number of viable cells in culture based on quantitation of the ATP present, which signals the presence of metabolically active cells. Following treatment, CellTiter-Glo® is added to treatment wells and incubated at 37° C. luminescence values were measured at using a Molecular Devices Spectramax microplate reader.
# Single Agent Studies—Cells were grown to 70% confluency, trypsinized, counted, and seeded in 96 well flat-bottom plates at a final concentration of 2.5×10^3-5×10^3 cells/well (Day 0). Cells were allowed to incubate in growth media for 24 hours. […] Viable cell numbers are quantified by the CellTiter-Glo® cell viability assay as described above. […]
# CT-26 = CT-26 murine colon tumor volume growth; assay type: in vivo; details: 150.00 mg/kg PO QD to end + Isotype Control 0.05 mg/kg IP QDx1, in mm³
# Procedure: • Group 1 Isotype Control+Compound ID #24 Vehicle Control • Group 2 Isotype Control+Compound ID #24 • Group 3 Anti-m4-1BB 0.05 mg/kg • Group 4 Anti-m4-1BB 0.10 mg/kg • Group 5 Anti-m4-1BB 0.05 mg/kg+Compound ID #24
# [2] = Pharmacokinetic studies, plasma of healthy mice; assay type: in vivo; details: mouse; for Half-life: 1.0 mg/kg IV; for AUC0-∞: 5.0 mg/kg PO; for AUC: plasma, 5 mg/kg oral (PO)
# Procedure: Plasma samples were collected from healthy mice and analyzed for levels of compound ID #24, ID #25, and ID #26 and reported in Table 6. In brief, compounds were individually and accurately weighed out to produce a stock solution in Dimethyl-sulfoxide (DMSO) at a concentration of 2 mg/mL and stored at −20° C. From the stock solution, a working stock was prepared by diluting it in Methanol-Water 50:50 (v/v) at 20 μg/mL for calibration curve preparation and stored at 4° C. Standards used for quantitation and quality control samples (QC's) were prepared on the same day of sample processing using blank plasma obtained from non-treated mice. For each analyte, standards were prepared through serial dilution of the working stock at concentrations of 0.1, 0.5, 1.0, 10, 50, 100, 500 and 1000 ng/mL; QC's were prepared at intermediate concentrations of 0.75, 7.5, 75 and 750 ng/mL. Plasma samples were stored at −80° C. until ready for analysis and then placed on ice for thawing. An aliquot of 20 μL for samples, standards and QC's, were transferred into a 96-well extraction plate according to a pre-defined layout. Appropriate volume of Methanol-Formic Acid 99.9-0.1 containing internal standard (Verapamil at 25 ng/mL) was added to each well and samples were extracted under vacuum. Eluent was then transferred into a LCMS plate for analysis using a suitable column for separation and MRM detection. Concentration of analytes was calculated based on the calibration curve and analyzed for pharmacokinetic parameters by using Non-compartmental analysis (NCA) using WinNonlin Phoenix software. Parameters such as Cmax, Tmax, half-life, AUC(0-last), AUC(0-∞), volume of distribution (Vss) and clearance (Cl/F) were reported.
# The analogs were tested for pharmacokinetic analysis in the mouse with doses of 1 mg/kg for intravenous (IV) route and 5 mg/kg for oral (PO) route. […] Overall exposure following IV dose also favored compound ID #24 with AUC0-∞ 1488.1 hr*ng/mL whereas compound ID #25 and ID #26 were 329.1 and 1193.7 hr*ng/mL, respectively.
# [3] = test system: MM1.S human myeloma cells; test: Human MM1.S myeloma xenograft, single agent screening; assay type: in vivo; details: female athymic nude mice; 100 mg/kg daily for 19 days, oral gavage
# Text: Body weights and tumor measurements were collected twice weekly.
# MC-38 = MC-38 murine colon tumor volume growth; assay type: in vivo; details: 150.00 mg/kg PO QD to end, in mm³
# Procedure: • Group 1 Isotype Control 5.00 mg/kg+Compound ID #24 Vehicle • Group 3 Compound ID #24 150.00 mg/kg • Group 4 anti-mGITR 5.00 mg/kg • Group 6 anti-mGITR 5.00 mg/kg+Compound ID #24 150.00 mg/kg
# [4] = test system: intratumoral CD8 T-cells and natural killer cells; test: Intratumoral immune cells in tumor bearing mice; assay type: in vivo
# cancer cell models = details: cited from earlier work
smiles,measurement,setting,value
"Nc1ncn([C@@H]2O[C@H](CO)[C@@H](O)[C@H]2O)c(=O)n1 [Azacitidine, 4-amino-1-β-D-ribofuranozyl-s-triazin-2(1H)-one]",Solubility,"[1]; acetone, ethanol and methyl ketone",insoluble
same,Solubility,[1]; dimethylsulfoxide (DMSO),soluble
same,Solubility,"[1]; ethanol/water (50/50), propylene glycol and polyethylene glycol",slightly soluble
same,Solubility,"[1]; water, water-saturated octanol, 5% dextrose in water, N-methyl-2-pyrrolidone, normal saline and 5% Tween 80 in water",sparingly soluble
"O=C(NO)c1ccc(Nc2nc3ccccc3n2CC2CCCCC2)cc1 [Compound ID #24, 4-(1-(cyclohexylmethyl)-1H-benzo[d]imidazol-2-ylamino)-N-hydroxybenzamide]",Improvement ID#24 over ID#26 Fold Change,U266,3.50
same,"Tumor volume, Mean",CT-26; Day 1,122.0
same,"Tumor volume, Median",CT-26; Day 1,113.8
same,"Tumor volume, individual animals",CT-26; Day 1,106 and 85 and 156 and 149 and 114
same,"Tumor volume, Mean",CT-26; Day 5,165.5
same,"Tumor volume, Median",CT-26; Day 5,144.8
same,"Tumor volume, individual animals",CT-26; Day 5,131 and 73 and 299 and 158
same,"Tumor volume, Mean",CT-26; Day 8,215.2
same,"Tumor volume, Median",CT-26; Day 8,208.7
same,"Tumor volume, individual animals",CT-26; Day 8,176 and 65 and 378 and 242
same,"Tumor volume, Mean",CT-26; Day 9,241.8
same,"Tumor volume, Median",CT-26; Day 9,245.2
same,"Tumor volume, individual animals",CT-26; Day 9,198 and 65 and 412 and 292
same,"Tumor volume, Mean",CT-26; Day 12,307.4
same,"Tumor volume, Median",CT-26; Day 12,285.7
same,"Tumor volume, individual animals",CT-26; Day 12,212 and 68 and 590 and 359
same,"Tumor volume, Mean",CT-26; Day 14,382.7
same,"Tumor volume, Median",CT-26; Day 14,352.6
same,"Tumor volume, individual animals",CT-26; Day 14,254 and 67 and 758 and 452
same,Half-life,[2],3.70 h
same,AUC0-∞,[2],3974.82 ng·h/mL
same,AUC,[2],3970 ng·h/mL
same,anticancer activity (tumor volume),[3],significantly superior anticancer activity when compared to either Compound ID #25 or Compound ID #26
same,"Tumor volume, Mean",MC-38; Day 1,94.5
same,"Tumor volume, Median",MC-38; Day 1,92.2
same,"Tumor volume, individual animals",MC-38; Day 1,68 and 81 and 103 and 128 and 92
same,"Tumor volume, Mean",MC-38; Day 6,141.8
same,"Tumor volume, Median",MC-38; Day 6,137.6
same,"Tumor volume, individual animals",MC-38; Day 6,72 and 92 and 138 and 231 and 176
same,"Tumor volume, Mean",MC-38; Day 9,154.8
same,"Tumor volume, Median",MC-38; Day 9,148.0
same,"Tumor volume, individual animals",MC-38; Day 9,83 and 121 and 148 and 240 and 182
same,"Tumor volume, Mean",MC-38; Day 12,187.8
same,"Tumor volume, Median",MC-38; Day 12,190.0
same,"Tumor volume, individual animals",MC-38; Day 12,123 and 158 and 222 and 248
same,"Tumor volume, Mean",MC-38; Day 15,235.9
same,"Tumor volume, Median",MC-38; Day 15,251.8
same,"Tumor volume, individual animals",MC-38; Day 15,135 and 213 and 290 and 305
same,"Tumor volume, Mean",MC-38; Day 19,285.2
same,"Tumor volume, Median",MC-38; Day 19,289.3
same,"Tumor volume, individual animals",MC-38; Day 19,178 and 289 and 388
same,"Tumor volume, Mean",MC-38; Day 22,389.1
same,"Tumor volume, Median",MC-38; Day 22,397.8
same,"Tumor volume, individual animals",MC-38; Day 22,244 and 398 and 526
same,"Tumor volume, Mean",MC-38; Day 26,566.5
same,"Tumor volume, Median",MC-38; Day 26,540.0
same,"Tumor volume, individual animals",MC-38; Day 26,370 and 540 and 789
same,"Tumor volume, Mean",MC-38; Day 29,714.8
same,"Tumor volume, Median",MC-38; Day 29,646.1
same,"Tumor volume, individual animals",MC-38; Day 29,"495 and 646 and 1,003"
same,numbers of intratumoral CD8 T-cells and natural killer cells,[4],increased numbers of intratumoral CD8 T-cells and natural killer cells
"O=C(NO)c1ccc(Nc2nc3ccccc3n2C2CCCCC2)cc1 [Compound ID #25, 4-(1-cyclohexyl-1H-benzo[d]imidazol-2-ylamino)-N-hydroxybenzamide]",Half-life,[2],1.20 h
same,AUC0-∞,[2],1277.26 ng·h/mL
same,AUC,[2],1280 ng·h/mL
"O=C(NO)c1ccc(Nc2nc3ccccc3n2C2CCCCCC2)cc1 [Compound ID #26, 4-(1-cycloheptyl-1H-benzo[d]imidazol-2-ylamino)-N-hydroxybenzamide]",AUC,[2],1650 ng·h/mL
"Nc1ncn([C@H]2C[C@H](O)[C@@H](CO)O2)c(=O)n1 [Decitabine, 4-amino-1-(2-deoxy-β-D-erythro-pentofuranosyl)-1,3,5-triazin-2(1H)one]",Solubility,[1]; dimethylsulfoxide (DMSO),soluble
same,Solubility,"[1]; ethanol/water (50/50), methanol/water (50/50) and methanol",slightly soluble
same,Solubility,[1]; water,sparingly soluble
same,"cell cycle, clonogenic survival and growth in cells",cancer cell models; Palii et al. 2008,"causes G2 arrest, reduces clonogenic survival, and inhibits growth in cells"
same,effect on growth and apoptosis of cancer cell models,cancer cell models; through re-expression of silenced genes,suppression of growth and apoptosis
